We go through one compound from US20180117103A1, “COMPOSITION FOR ANTIOXIDATION AND IMPROVEMENT OF SKIN CONDITIONS” (CELL BIOTECH CO., LTD., priority 2016, published 2018).

In data set [1] the test system is superoxide dismutase (SOD). The data set is described as follows: Activity of superoxide dismutase in serum of white rats, colorimetric assay kit (Test Example 2). The data set is classed as in vivo, white rats (male, SD rats). Particulars: oral administration for 5 weeks. The method, then: In order to examine the change in antioxidant activity by administration of probiotics and vitamin C (group G4) according to the present invention, antioxidant enzyme activity and serum vitamin levels were measured in the following manner. Blood was collected from the orbits of the white rats of Example 1. The collected blood was incubated at room temperature for 2 hours, and then centrifuged at 1500×g at 4° C. for 15 minutes to separate sera, and the separated sera were stored at −80° C. until use in experiments. For measurement of the activity of antioxidant enzyme in the separated sera, the activity of superoxide dismutase in the sera was measured using a superoxide dismutase assay kit based on a colorimetry assay, and the results of the measurement are shown in FIG. 1 and Table 3 below.

The nature of data set [2]: Weight change of white rats on oral administration of probiotics and vitamin C (Test Example 1). The data set is classed as in vivo, white rats (male, SD rats). Particulars: N = 5. The method, then:
In order to verify the effect of a combination of probiotics and vitamin C on anti-aging and the like, 4-week-old white rats (male, SD rats, Saeronbio, Korea) were purchased. Two of the animals were housed in each polypropylene cage and acclimated for one week while they were allowed access to feed and water ad libitum. In addition, the animals were housed at a temperature of 24±2° C. and a relative humidity of 40±20% with a 12-hr light/12-hr dark cycle. During the acclimation period, the health of the rats was checked, and among these rats, animals whose activity was not reduced were selected and used in subsequent tests. […] In order to examine the stability and phenotype of each white rat when the probiotics and the vitamin C were administered to the test animals for 5 weeks in Example 1, the weight change patterns of the white rats during the period from the day before administration to 5 weeks after the start of administration in Example 1 were measured, and the results of the measurement are shown in Table 2 below.

For another data set, the system named is E. faecium. The data set can be described thus: Distribution of E. faecium in feces of white rats by real-time PCR (Test Example 4). The data set is classed as in vivo, white rats (male, SD rats). Particulars: intestinal feces at 5 weeks after oral administration. The method, then:
(§1) In order to examine the change in intestinal microorganisms by administration of probiotics and vitamin C according to the present invention, expression of genesspecific for L. rhamnosus and E. faecium in the test groups (G1 to G4) prepared in Example 1 was measured.
(§2) At 5 weeks after oral administration in Example 1, intestinal feces were isolated from the rats of G1 to G4, and DNA was extracted using an MP bio stool kit according to the manufacturer's protocol. Using the extracted DNA, real-time polymerase chain reaction (PCR) was performed using primers specific for L. rhamnosus and E. faecium. The results are shown in FIGS. 4 and 5 and Tables 6 and 7 below.
Background: In qPCR the cycle at which signal appears reflects the starting amount.

Data set [3] in a line: Vitamin C levels in sera of white rats by HPLC. The class given is in vivo. The conditions noted are these: male, SD, rat, 1000 mg/head, serum of white rats, oral administration for 5 weeks, read-out: Vit C (serum vitamin C level), Mean ± SD. How it is done: Blood was collected from the orbits of the white rats of Example 1. The collected blood was incubated at room temperature for 2 hours, and then centrifuged at 1500×g at 4° C. for 15 minutes to separate sera, and the separated sera were stored at −80° C. until use in experiments.
For measurement of vitamin C levels in the sera of the white rats prepared in Example 1, high-performance liquid chromatography (HPLC) analysis was performed using a vitamin C reagent kit, and the results of the analysis are shown in FIG. 3 and Table 5 below.

Another data set deals with L. rhamnosus. The data set can be described thus: Distribution of L. rhamnosus in feces of white rats by real-time PCR (Test Example 4). The class given is in vivo, white rats (male, SD rats). Particulars: intestinal feces at 5 weeks after oral administration. How it is done: as §1, §2
Data set [4] concerns total antioxidant capacity (TAS). The data set can be described thus: Total antioxidant capacity (TAS) in serum of white rats, colorimetric kit (Test Example 2). The class given is in vivo, white rats (male, SD rats). Particulars: oral administration for 5 weeks. The method, then:
In order to examine the change in antioxidant activity by administration of probiotics and vitamin C (group G4) according to the present invention, antioxidant enzyme activity and serum vitamin levels were measured in the following manner. Blood was collected from the orbits of the white rats of Example 1. The collected blood was incubated at room temperature for 2 hours, and then centrifuged at 1500×g at 4° C. for 15 minutes to separate sera, and the separated sera were stored at −80° C. until use in experiments. In order to measure the defense system composed of antioxidant vitamins, non-enzymatic antioxidant substances and antioxidant enzymes, which defend against the toxicity of reactive oxygen species and total antioxidant capacity (TAS) values were measured using a kit of measuring antioxidant activity based on a colorimetry assay.

Take `O=C1O[C@H]([C@@H](O)CO)C(O)=C1O` [G3, L-ascorbic acid]: the “SOD, Mean ± SD” value in data set [1] is 6.248 ± 0.08967 U/L. The “Change in weight, Mean” value in data set [2] (0 week (day before administration), oral) is on record as 137.6 g; in data set [2] (1 week of oral administration) it was 178.8 g; in data set [2] (2 weeks of oral administration), 237.8 g; in data set [2] (3 weeks of oral administration) it was 293.0 g; in data set [2] (4 weeks of oral administration), 338.1 g; in data set [2] (5 weeks of oral administration), 354.1 g. Moreover, the “E. faecium, Mean ± SD” value in the data set on E. faecium was determined as 7.032 ± 0.1134 Nlog10/1 g feces. In addition, the concentration at 5 weeks in data set [3] was determined as 32.5 ± 1.29 µM. Moreover, the “L. rhamnosus, Mean ± SD” value in the data set on L. rhamnosus came out at 7.340 ± 0.09975 Nlog10/1 g feces. Also, in data set [4], the “TAS, Mean ± SD” value is given as 1.568 ± 0.01708 mmol/L.
